US11370769B2, “TRPC5 inhibitors and methods of using same” (BOARD OF REGENTS OF THE UNIVERSITY OF NEBRASKA, priority 2017, dated 2022)

Target: T1, TRPC4 (Homo sapiens, UniProt Q9UBN4)
T1 construct: expressed in transfected cells; host or cells: HEK293
T1 sequence (Q9UBN4 1-977): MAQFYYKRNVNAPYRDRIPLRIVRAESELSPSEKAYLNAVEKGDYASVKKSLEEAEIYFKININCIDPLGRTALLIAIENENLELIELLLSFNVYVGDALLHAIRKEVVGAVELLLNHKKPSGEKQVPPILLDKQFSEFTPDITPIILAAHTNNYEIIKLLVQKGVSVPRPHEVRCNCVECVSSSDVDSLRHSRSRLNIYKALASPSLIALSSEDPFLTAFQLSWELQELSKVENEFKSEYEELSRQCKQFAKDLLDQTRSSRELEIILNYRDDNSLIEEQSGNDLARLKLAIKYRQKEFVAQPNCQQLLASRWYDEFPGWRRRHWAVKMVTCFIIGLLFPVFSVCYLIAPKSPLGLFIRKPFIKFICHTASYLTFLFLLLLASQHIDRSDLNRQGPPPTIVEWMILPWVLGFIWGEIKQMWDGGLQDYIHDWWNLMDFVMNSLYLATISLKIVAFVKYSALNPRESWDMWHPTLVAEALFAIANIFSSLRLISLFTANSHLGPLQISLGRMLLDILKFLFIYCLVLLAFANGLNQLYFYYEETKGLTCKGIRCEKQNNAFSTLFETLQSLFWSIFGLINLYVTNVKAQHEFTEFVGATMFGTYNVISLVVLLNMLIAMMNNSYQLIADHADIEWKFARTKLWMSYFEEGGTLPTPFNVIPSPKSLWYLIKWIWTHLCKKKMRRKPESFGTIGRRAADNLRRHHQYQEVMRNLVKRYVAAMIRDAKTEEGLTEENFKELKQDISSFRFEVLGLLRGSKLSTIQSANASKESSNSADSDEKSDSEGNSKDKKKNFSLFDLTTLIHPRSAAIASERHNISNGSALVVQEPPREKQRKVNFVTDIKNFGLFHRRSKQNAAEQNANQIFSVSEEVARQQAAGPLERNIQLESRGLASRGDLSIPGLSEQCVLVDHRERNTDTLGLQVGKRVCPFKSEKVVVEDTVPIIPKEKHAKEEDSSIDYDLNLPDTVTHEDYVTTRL
Test: HEK293 whole-cell patch clamp recording, TRPC4 inhibition assay
Type: cell-based
Conditions: 30 μM, HEK cells expressing TRPC4, CCh 100 μM
Protocol: TRPC4, TRPC5, and TRPC6 inhibition assay: HEK293 whole-cell recordings Whole-cell patch clamp recording was performed 16 h after transfection. The bath solution contained (in mM): 140 NaCl, 5 KCl, 10 HEPES, 2 MgCl2, 2 CaCl2, 10 glucose with pH7.4 adjusted with NaOH. The intracellular solution contained (in mM): 140 KCl, 5 EGTA, 10 HEPES, 2 MgCl2 with pH7.4 adjusted with KOH. The patch pipettes were made using a two-step-protocol (P-97, Sutter Instrument). The pipette resistance was maintained between 4 to 8 MΩ. Once the whole-cell configuration was achieved, cells were clamped at a holding potential of −60 mV, and given a 50 ms ramp stimulation from −100 mV to +100 mV in every 5 s. All currents were filtered at 2 KHz (Axopatch 200B amplifier, Axon Instruments, Union City, Calif.) and digitized at 10 KHz for whole-cell recordings using Axon pCLAMP 10.4. Data were then analyzed using Clampfit 10.4 (Molecular Devices).
HEK293 cell culture and transfection: Transfection of HEK293 cells was carried out using Plus reagent (Invitrogen) and Lipofectamine (Invitrogen) according to standard protocols. For heterologous expression of TRP channels in HEK293 cells, 1 μg of TRPC5-GFP, TRPC6-GFP or TRPC4-GFP plasmids were used to transfect HEK293 cells in a 3.5 cm petri dish where cells were allowed to grow to 80% confluence. Electrophysiology was carried out after 16 h incubation.

`c1ccc(Cn2c(NCc3ccco3)nc3ccccc32)cc1` [AC1903] was tested, and the “block of carbachol (CCh)-induced TRPC4 current” value was “failed to block”.
